The assay relates to IBABP mRNA in HT29-FXRFL cells. Nature of the assay: Northern blot of IBABP mRNA induction in HT29 stable cell lines. The class given is cell-based, human. As to the method: 20 μg total RNA was isolated using Trizol (Invitrogen) and used for Northern blot analysis. cDNA probe for human IBABP was prepared and hybridized to the blot. Blots were normalized by β-actin expression.
HepG2 or HT29-derived cell lines were typically cultured in medium containing superstripped FBS for 24 hr before the addition of a ligand or DMSO (vehicle) for an additional 24-48 hr. Total RNA was isolated using TRIzol reagent and was resolved (10 μg/lane) on a 1% agarose, 2.2 M formaldehyde gel, transferred to a nylon membrane (Hybond N^+; Amersham Biosciences, Inc.), and cross-linked to the membrane with UV light.
cDNA probes were radiolabeled with [α-^32P]dCTP using the highprime labeling kit (Amersham Biosciences, Inc.). Membranes were hybridized using the QuikHyb hybridization solution (Stratagene, La Jolla, Calif.) according to the manufacturer's protocol. Blots were normalized for variations of RNA loading by hybridization to a control probe, either, 18 S ribosomal cDNA, or the ribosomal protein 36B4. The RNA levels were quantitated using a PhosphorImager (ImageQuant software; Molecular Dynamics, Inc., Sunnyvale, Calif.) in addition to being exposed to X-ray film.
Human colon cells HT29 (FXR null until differentiated) were infected with retroviral vectors that expressed either FXR constructs and the puromycin-resistant gene or the puromycin-resistant gene alone. Puromycin resistant cells were isolated and pooled cell populations were propagated that harbored either the vector alone (HT29-BABE), overexpressed FXR full length (HT29-FXRFL), a non-functional FXR truncated at the AF2 region (HT29-FXR-AF2), or a constitutively active FXR that has the VP16 activation domain fused N-terminal of the protein (HT29-VP16-FXR). Confirmation of the successful establishment of the different stable cell lines was established via northern blot analysis of FXR message levels in the cells (see FIG. 4A). […]
The ability of the novel compounds identified herein to induce IBABP gene expression in this cell system was also examined. Total RNA from HT29 stable cells treated overnight with fexaramine, fexarine and fexarene was probed for IBABP gene expression (see FIG. 4D).

The mark [1] stands for this setting: HT29-FXRFL, overnight treatment.

SMILES strings stand for the structures.

For the molecule `C[C@H](CCC(=O)O)[C@H]1CC[C@H]2[C@@H]3[C@H](O)C[C@@H]4C[C@H](O)CC[C@]4(C)[C@H]3CC[C@]12C` [CDCA, chenodeoxycholic acid, reference compound], the “induction of IBABP mRNA in control lines” value (HT29-BABE or HT29-FXR-AF2 cell lines) is given as “No induction”. Also, under setting [1], the “concentration of maximal activation of the IBABP gene” value is 100 µM and the “induction of IBABP mRNA” value is recorded as “robust concentration dependent induction”.

(Values after patent US7647217B2, “Structure of the farnesoid X receptor ligand binding domain and methods of use therefor” (The Salk Institute for Biological Studies, priority 2002, dated 2010).)
